Experimental data reported in patent US20250186436A1 (4E Therapeutics, Inc., priority 2021, published 2025).
Several values for one entry are separate records, joined by “and”; a condition that tells them apart may be missing. Equal entries are not always repeated. Where two headings read alike, the source gives them in different places.

Experiment: PK study in male Sprague-Dawley rats dosed once per day for five days, PO 1 mg/kg, 0.5% HPMC (Example 6)
Format: in vivo
Settings: 0.5% HPMC suspension
Description: Example 6: PK study of 4ET-03-053 in male Sprague-Dawley rats dosed once per day for five days (P0; 1 mg/kg; 0.500HPMC aqueous suspension)
Table 18 provides plasma and brain concentrations of 4ET-03-0053 at 24 hr after the last dose of five daily P0 doses.

[1] = Sprague-Dawley rats, day 5 of daily PO 1 mg/kg, individual animals, 1 mg/kg
[2] = Sprague-Dawley rats, day 5 of daily PO 1 mg/kg, mean (n = 3)
[3] = male Sprague-Dawley rats, single (first) PO 1 mg/kg dose, individual animals, 1 mg/kg
[4] = male Sprague-Dawley rats, single (first) PO 1 mg/kg dose, mean (n = 3)
[5] = male, Sprague-Dawley, rat, in vivo, po, 1 mg/kg, Sprague-Dawley rats, day 5 of daily PO 1 mg/kg, individual animals
[6] = male, Sprague-Dawley, rat, in vivo, po, 1 mg/kg, Sprague-Dawley rats, day 5 of daily PO 1 mg/kg, mean (n = 3)
[7] = male, Sprague-Dawley, rat, in vivo, po, 1 mg/kg, male Sprague-Dawley rats, single (first) PO 1 mg/kg dose, individual animals
[8] = male, Sprague-Dawley, rat, in vivo, po, 1 mg/kg, male Sprague-Dawley rats, single (first) PO 1 mg/kg dose, mean (n = 3)

Compound: Cc1cc(Nc2cc(N)ncn2)c(=O)n2c1C(=O)NC21CCC2(CC2)CC1 [4ET-03-053, 6″-((6-Aminopyrimidin-4-yl)amino)-8″-methyl-2″H-dispiro[cyclopropane-1,1′-cyclohexane-4′,3″-imidazo[1,5-a]pyridine]-1″,5″-dione]
- time to peak plasma concentration (Sprague-Dawley rats, after five daily PO doses of 1 mg/kg): ≤ 2 h
- AUCinf [1]: 43537 ng·h/mL and 36277 ng·h/mL
- AUCinf/D [1]: 49825 kg·h/kL and 43537 kg·h/kL and 36277 kg·h/kL
- AUClast [1]: 40882 ng·h/mL and 34335 ng·h/mL
- Clast [1]: 318 ng/mL and 291 ng/mL
- Cmax [1]: 4550 ng/mL and 4500 ng/mL
- Cmax/D [1]: 4150 kg/kL and 4550 kg/kL and 4500 kg/kL
- F [1]: 96.8% and 84.6% and 70.5%
- MRTinf [1]: 7.96 h
- t1/2 [1]: 5.90 h and 6.21 h
- AUCinf/D [2]: 43213 kg·h/kL
- Cmax/D [2]: 4400 kg/kL
- F [2]: 84.0%
- AUCinf [3]: 33302 ng·h/mL and 30451 ng·h/mL
- AUCinf/D [3]: 37178 kg·h/kL and 33302 kg·h/kL and 30451 kg·h/kL
- AUClast [3]: 31340 ng·h/mL and 28992 ng·h/mL
- Clast [3]: 237 ng/mL and 224 ng/mL
- Cmax [3]: 2750 ng/mL
- Cmax/D [3]: 2400 kg/kL and 2750 kg/kL and 2580 kg/kL
- F [3]: 72.2% and 64.7% and 59.2%
- MRTinf [3]: 8.31 h and 7.83 h
- t1/2 [3]: 5.77 h and 5.92 h
- AUCinf/D [4]: 33644 kg·h/kL
- Cmax/D [4]: 2577 kg/kL
- F [4]: 65.4%
- time to peak plasma concentration (male Sprague-Dawley rats, single PO 1 mg/kg): ≤ 2 h
- bioavailability (male, Sprague-Dawley, rat, in vivo, po, 1 mg/kg, Sprague-Dawley rats, after five daily PO doses of 1 mg/kg): 84%
- concentration at 24 h (male, Sprague-Dawley, rat, in vivo, po, 1 mg/kg, Sprague-Dawley rats, after five daily PO doses of 1 mg/kg, at 24 hr, read-out: last measurable concentration): 278 ng/mL
- Cmax (male, Sprague-Dawley, rat, in vivo, po, 1 mg/kg, Sprague-Dawley rats, after five daily PO doses of 1 mg/kg, read-out: peak plasma concentration (Cmax)): 4400 ng/mL
- half-life (male, Sprague-Dawley, rat, in vivo, po, 1 mg/kg, Sprague-Dawley rats, after five daily PO doses of 1 mg/kg, read-out: terminal half-life (t1/2) (converted)): 361 min
- AUC(0-inf) (male, Sprague-Dawley, rat, in vivo, po, 1 mg/kg, Sprague-Dawley rats, after five daily PO doses of 1 mg/kg, read-out: total systemic exposure (AUCinf)): 43200 ng·h/mL
- AUC(0-t) [5]: 47100 ng·h/mL
- MRT inf [5]: 7.89 h
- Tmax [5]: 1 h
- AUC(0-inf) (male, Sprague-Dawley, rat, in vivo, po, 1 mg/kg, Sprague-Dawley rats, day 5 of daily PO 1 mg/kg, individual animals, read-out: AUCinf): 49800 ng·h/mL
- concentration at 24 h (male, Sprague-Dawley, rat, in vivo, po, 1 mg/kg, Sprague-Dawley rats, day 5 of daily PO 1 mg/kg, individual animals, read-out: Clast): 226 ng/mL
- Cmax (male, Sprague-Dawley, rat, in vivo, po, 1 mg/kg, Sprague-Dawley rats, day 5 of daily PO 1 mg/kg, individual animals, read-out: Cmax): 4150 ng/mL
- half-life (male, Sprague-Dawley, rat, in vivo, po, 1 mg/kg, Sprague-Dawley rats, day 5 of daily PO 1 mg/kg, individual animals, read-out: t1/2 (converted)): 355 min
- AUC(0-t) [6]: 40800 ng·h/mL
- MRT inf [6]: 7.8 h
- Tmax [6]: 1.33 h
- AUC(0-inf) (male, Sprague-Dawley, rat, in vivo, po, 1 mg/kg, Sprague-Dawley rats, day 5 of daily PO 1 mg/kg, mean (n = 3), read-out: AUCinf): 43200 ng·h/mL
- concentration at 24 h (male, Sprague-Dawley, rat, in vivo, po, 1 mg/kg, Sprague-Dawley rats, day 5 of daily PO 1 mg/kg, mean (n = 3), read-out: Clast): 278 ng/mL
- Cmax (male, Sprague-Dawley, rat, in vivo, po, 1 mg/kg, Sprague-Dawley rats, day 5 of daily PO 1 mg/kg, mean (n = 3), read-out: Cmax): 4400 ng/mL
- half-life (male, Sprague-Dawley, rat, in vivo, po, 1 mg/kg, Sprague-Dawley rats, day 5 of daily PO 1 mg/kg, mean (n = 3), read-out: t1/2 (converted)): 361 min
- AUC(0-t) [7]: 35100 ng·h/mL
- MRT inf [7]: 8.25 h
- Tmax [7]: 2 h
- AUC(0-inf) (male, Sprague-Dawley, rat, in vivo, po, 1 mg/kg, male Sprague-Dawley rats, single (first) PO 1 mg/kg dose, individual animals, read-out: AUCinf): 37200 ng·h/mL
- concentration at 24 hr (male, Sprague-Dawley, rat, in vivo, po, 1 mg/kg, male Sprague-Dawley rats, single (first) PO 1 mg/kg dose, individual animals, read-out: Clast): 179 ng/mL
- Cmax (male, Sprague-Dawley, rat, in vivo, po, 1 mg/kg, male Sprague-Dawley rats, single (first) PO 1 mg/kg dose, individual animals, read-out: Cmax): 2400 ng/mL
- half-life (male, Sprague-Dawley, rat, in vivo, po, 1 mg/kg, male Sprague-Dawley rats, single (first) PO 1 mg/kg dose, individual animals, read-out: t1/2 (converted)): 331 min
- AUC(0-t) [8]: 31800 ng·h/mL
- MRT inf [8]: 8.13 h
- Tmax [8]: 2 h
- AUC(0-inf) (male, Sprague-Dawley, rat, in vivo, po, 1 mg/kg, male Sprague-Dawley rats, single (first) PO 1 mg/kg dose, mean (n = 3), read-out: AUCinf): 33600 ng·h/mL
- concentration at 24 hr (male, Sprague-Dawley, rat, in vivo, po, 1 mg/kg, male Sprague-Dawley rats, single (first) PO 1 mg/kg dose, mean (n = 3), read-out: Clast): 213 ng/mL
- Cmax (male, Sprague-Dawley, rat, in vivo, po, 1 mg/kg, male Sprague-Dawley rats, single (first) PO 1 mg/kg dose, mean (n = 3), read-out: Cmax): 2580 ng/mL
- half-life (male, Sprague-Dawley, rat, in vivo, po, 1 mg/kg, male Sprague-Dawley rats, single (first) PO 1 mg/kg dose, mean (n = 3), read-out: t1/2 (converted)): 344 min
- bioavailability (male, Sprague-Dawley, rat, in vivo, po, 1 mg/kg, male Sprague-Dawley rats, single PO 1 mg/kg): 65.4%
- concentration at 24 h (male, Sprague-Dawley, rat, in vivo, po, 1 mg/kg, male Sprague-Dawley rats, single PO 1 mg/kg, at 24 hr, read-out: last measurable concentration): 213 ng/mL
- Cmax (male, Sprague-Dawley, rat, in vivo, po, 1 mg/kg, male Sprague-Dawley rats, single PO 1 mg/kg, read-out: peak plasma concentration (Cmax)): 2580 ng/mL
- half-life (male, Sprague-Dawley, rat, in vivo, po, 1 mg/kg, male Sprague-Dawley rats, single PO 1 mg/kg, read-out: terminal half-life (t1/2) (converted)): 344 min
- AUC(0-inf) (male, Sprague-Dawley, rat, in vivo, po, 1 mg/kg, male Sprague-Dawley rats, single PO 1 mg/kg, read-out: total systemic exposure (AUCinf)): 33600 ng·h/mL
